According to ChEMBL document CHEMBL5214927, “Recent advance on carbamate-based cholinesterase inhibitors as potential multifunctional agents against Alzheimer's disease” (Eur J Med Chem, 2022):

How the values were obtained:
[1] = Selectivity index, ratio of IC50 for electric eel AChE to IC50 for equine BChE
[2] = molecular target: T1, Cholinesterase (Homo sapiens, UniProt P06276); test: Inhibition of human serum BChE using butyrylthiocholine as substrate by Ellman's method
[3] = molecular target: T2, Acetylcholinesterase (Homo sapiens, UniProt P22303)
T2 sequence (P22303 whole entry): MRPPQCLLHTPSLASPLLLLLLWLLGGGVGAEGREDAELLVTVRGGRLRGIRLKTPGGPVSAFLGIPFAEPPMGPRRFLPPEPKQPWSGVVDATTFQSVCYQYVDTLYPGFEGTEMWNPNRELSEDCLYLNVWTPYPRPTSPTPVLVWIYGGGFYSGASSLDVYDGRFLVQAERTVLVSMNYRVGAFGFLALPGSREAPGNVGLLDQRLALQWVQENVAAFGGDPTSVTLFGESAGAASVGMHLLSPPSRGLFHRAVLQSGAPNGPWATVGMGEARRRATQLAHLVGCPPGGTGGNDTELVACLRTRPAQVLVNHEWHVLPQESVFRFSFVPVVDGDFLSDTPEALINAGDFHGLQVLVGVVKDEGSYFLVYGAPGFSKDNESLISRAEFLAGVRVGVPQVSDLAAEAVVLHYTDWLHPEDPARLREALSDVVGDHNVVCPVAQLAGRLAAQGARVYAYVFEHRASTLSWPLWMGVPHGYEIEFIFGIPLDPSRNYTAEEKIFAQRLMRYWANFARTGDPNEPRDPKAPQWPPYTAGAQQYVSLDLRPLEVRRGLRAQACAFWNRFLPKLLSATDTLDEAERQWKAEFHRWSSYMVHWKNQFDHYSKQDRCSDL
Description: Inhibition of human erythrocyte AChE using acetylthiocholine iodide as substrate preincubated for 30 mins followed by substrate addition measured after 5 mins by Ellman's method

[4] = molecular target: T3, Cholinesterases; ACHE & BCHE (Homo sapiens) (UniProt P06276+P22303); test: Selectivity index, ratio of IC50 for AChE (unknown origin) to BChE (unknown origin); type: protein assay
T3 sequence (P06276 whole entry, looked up): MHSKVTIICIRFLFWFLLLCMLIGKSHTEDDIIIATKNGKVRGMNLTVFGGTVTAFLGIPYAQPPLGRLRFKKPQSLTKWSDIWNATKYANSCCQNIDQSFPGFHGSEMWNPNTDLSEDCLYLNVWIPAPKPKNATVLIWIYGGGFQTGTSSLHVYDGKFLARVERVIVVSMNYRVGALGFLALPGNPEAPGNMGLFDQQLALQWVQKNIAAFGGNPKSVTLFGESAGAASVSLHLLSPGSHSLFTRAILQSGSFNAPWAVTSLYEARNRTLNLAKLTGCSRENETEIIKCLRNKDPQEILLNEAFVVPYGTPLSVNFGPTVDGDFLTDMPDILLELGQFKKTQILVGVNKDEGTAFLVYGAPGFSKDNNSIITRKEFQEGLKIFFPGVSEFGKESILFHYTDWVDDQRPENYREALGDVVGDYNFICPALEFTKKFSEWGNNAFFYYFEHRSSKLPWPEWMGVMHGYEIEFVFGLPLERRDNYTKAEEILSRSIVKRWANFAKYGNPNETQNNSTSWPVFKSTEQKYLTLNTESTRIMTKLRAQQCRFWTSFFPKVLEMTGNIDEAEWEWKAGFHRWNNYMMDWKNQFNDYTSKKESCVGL
T3 sequence (P22303 whole entry, looked up): as the sequence (P22303 whole entry) above

[5] = molecular target: T4, Amine oxidase [flavin-containing] A (Homo sapiens, UniProt P21397); test: Inhibition of MAO-A (unknown origin)
T4 sequence (P21397 whole entry): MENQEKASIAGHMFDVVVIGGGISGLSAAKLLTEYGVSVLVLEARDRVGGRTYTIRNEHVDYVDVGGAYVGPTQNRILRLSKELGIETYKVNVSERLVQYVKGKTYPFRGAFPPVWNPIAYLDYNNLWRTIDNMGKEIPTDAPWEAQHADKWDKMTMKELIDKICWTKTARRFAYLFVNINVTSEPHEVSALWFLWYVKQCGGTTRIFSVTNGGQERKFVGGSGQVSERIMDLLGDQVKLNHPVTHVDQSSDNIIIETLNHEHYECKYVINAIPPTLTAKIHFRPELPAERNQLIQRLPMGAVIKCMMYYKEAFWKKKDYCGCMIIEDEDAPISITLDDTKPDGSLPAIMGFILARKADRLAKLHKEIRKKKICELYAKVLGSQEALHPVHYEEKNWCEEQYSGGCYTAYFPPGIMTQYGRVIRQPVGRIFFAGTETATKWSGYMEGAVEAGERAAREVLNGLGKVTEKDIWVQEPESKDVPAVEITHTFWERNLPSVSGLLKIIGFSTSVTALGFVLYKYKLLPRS

[6] = molecular target: T5, Amine oxidase [flavin-containing] B (Homo sapiens, UniProt P27338); test: Inhibition of MAO-B (unknown origin)
T5 sequence (P27338 whole entry): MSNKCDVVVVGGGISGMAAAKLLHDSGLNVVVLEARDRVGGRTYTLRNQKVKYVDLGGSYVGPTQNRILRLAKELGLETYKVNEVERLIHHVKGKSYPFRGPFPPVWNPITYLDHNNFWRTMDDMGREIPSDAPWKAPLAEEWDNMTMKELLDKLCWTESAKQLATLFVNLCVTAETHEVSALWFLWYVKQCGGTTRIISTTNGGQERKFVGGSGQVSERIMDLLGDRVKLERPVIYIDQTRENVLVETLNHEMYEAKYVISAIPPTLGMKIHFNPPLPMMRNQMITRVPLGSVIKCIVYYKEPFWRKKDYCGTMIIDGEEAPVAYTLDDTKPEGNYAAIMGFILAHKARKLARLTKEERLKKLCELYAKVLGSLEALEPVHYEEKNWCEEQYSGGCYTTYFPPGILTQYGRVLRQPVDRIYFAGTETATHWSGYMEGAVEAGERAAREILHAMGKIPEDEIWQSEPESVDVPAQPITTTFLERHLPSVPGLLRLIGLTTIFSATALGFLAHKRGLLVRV

[7] = molecular target: T2, Acetylcholinesterase; test: Inhibition of recombinant human AChE
[8] = molecular target: T6, Acetylcholinesterase (Electrophorus electricus, UniProt O42275); test: Inhibition of electric eel AChE
T6 sequence (O42275 whole entry): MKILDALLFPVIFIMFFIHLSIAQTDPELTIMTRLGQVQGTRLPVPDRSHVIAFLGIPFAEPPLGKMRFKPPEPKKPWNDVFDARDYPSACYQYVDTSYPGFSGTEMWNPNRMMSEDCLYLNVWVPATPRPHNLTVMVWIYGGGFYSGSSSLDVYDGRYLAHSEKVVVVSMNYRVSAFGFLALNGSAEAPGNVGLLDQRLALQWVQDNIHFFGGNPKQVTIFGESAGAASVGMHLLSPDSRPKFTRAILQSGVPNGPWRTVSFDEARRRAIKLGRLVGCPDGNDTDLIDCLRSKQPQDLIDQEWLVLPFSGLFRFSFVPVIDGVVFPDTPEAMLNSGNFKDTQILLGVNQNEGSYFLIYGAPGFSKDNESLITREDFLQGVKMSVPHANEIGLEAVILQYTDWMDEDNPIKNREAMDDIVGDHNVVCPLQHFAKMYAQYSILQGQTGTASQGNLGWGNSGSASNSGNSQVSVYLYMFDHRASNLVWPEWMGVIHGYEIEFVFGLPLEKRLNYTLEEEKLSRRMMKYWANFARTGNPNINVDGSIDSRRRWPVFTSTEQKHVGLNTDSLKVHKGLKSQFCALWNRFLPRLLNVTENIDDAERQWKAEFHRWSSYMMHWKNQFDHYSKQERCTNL

[9] = molecular target: T7, Cholinesterase (Equus caballus, UniProt P81908); test: Inhibition of equine BChE
T7 sequence (P81908 whole entry): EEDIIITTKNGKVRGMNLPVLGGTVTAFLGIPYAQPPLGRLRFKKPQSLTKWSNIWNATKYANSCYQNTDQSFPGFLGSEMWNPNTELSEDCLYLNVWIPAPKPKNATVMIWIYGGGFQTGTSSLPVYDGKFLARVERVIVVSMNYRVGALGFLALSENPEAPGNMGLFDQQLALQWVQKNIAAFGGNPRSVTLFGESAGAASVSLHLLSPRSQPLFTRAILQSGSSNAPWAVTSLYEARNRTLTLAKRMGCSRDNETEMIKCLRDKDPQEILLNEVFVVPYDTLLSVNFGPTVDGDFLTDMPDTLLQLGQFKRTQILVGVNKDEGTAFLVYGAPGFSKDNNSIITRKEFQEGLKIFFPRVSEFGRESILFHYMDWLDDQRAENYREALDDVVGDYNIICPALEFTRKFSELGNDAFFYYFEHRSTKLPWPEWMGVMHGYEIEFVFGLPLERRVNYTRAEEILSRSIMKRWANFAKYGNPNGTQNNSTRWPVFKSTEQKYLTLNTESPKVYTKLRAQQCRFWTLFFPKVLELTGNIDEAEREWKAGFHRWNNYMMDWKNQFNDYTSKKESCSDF

[10] = molecular target: T1, Cholinesterase; test: Inhibition of BChE (unknown origin)
[11] = molecular target: T2, Acetylcholinesterase; test: Inhibition of AChE (unknown origin)
[12] = molecular target: T8, Acetylcholinesterase (Rattus norvegicus, UniProt P37136); test: Inhibition of Sprague-Dawley rat cortex AChE using acetylthiocholine iodide as substrate incubated for 15 mins in presence of iso-OMPA inhibitor by Ellman's method
T8 sequence (P37136 whole entry): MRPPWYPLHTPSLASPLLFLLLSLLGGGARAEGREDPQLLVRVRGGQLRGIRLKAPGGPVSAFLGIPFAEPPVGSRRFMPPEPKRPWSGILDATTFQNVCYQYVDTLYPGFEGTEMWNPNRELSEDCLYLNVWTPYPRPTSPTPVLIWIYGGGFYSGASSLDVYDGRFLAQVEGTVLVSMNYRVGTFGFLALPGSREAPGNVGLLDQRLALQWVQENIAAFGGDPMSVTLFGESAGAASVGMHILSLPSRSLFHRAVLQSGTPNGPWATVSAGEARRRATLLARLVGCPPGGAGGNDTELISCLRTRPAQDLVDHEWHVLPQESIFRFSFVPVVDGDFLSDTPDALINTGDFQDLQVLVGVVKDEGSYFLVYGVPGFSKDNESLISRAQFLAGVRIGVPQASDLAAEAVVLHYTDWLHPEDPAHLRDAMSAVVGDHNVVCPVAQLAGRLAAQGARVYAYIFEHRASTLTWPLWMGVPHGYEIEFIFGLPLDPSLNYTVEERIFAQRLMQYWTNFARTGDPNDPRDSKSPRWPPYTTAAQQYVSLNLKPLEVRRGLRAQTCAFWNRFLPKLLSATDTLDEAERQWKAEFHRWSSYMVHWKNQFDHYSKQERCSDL

[13] = molecular target: T3, Cholinesterases; ACHE & BCHE (Homo sapiens); test: Selectivity index, ratio of IC50 for recombinant human serum BChE to IC50 for recombinant human serum AChE; type: protein assay
[14] = molecular target: T2, Acetylcholinesterase; test: Inhibition of recombinant human serum AChE using acetylthiocholine iodide as substrate preincubated for 20 mins followed by substrate addition by Ellman's method
[15] = molecular target: T1, Cholinesterase; test: Inhibition of recombinant human serum BChE using acetylthiocholine iodide as substrate preincubated for 20 mins followed by substrate addition by Ellman's method
[16] = molecular target: T1, Cholinesterase; test: Inhibition of human BChE
[17] = molecular target: T6, Acetylcholinesterase; test: Inhibition of electric eel AChE using acetylthiocholine iodide as substrate incubated for 30 mins by Ellman's method
[18] = molecular target: T6, Acetylcholinesterase; test: Binding affinity to electric eel AChE assessed as inhibition constant using acetylthiocholine iodide as substrate incubated for 30 mins by Ellman's method
[19] = molecular target: T7, Cholinesterase; test: Inhibition of equine BChE using acetylthiocholine iodide as substrate preincubated for 10 mins followed by substrate addition by Ellman's method
[20] = molecular target: T2, Acetylcholinesterase; test: Inhibition of human AChE

T1 sequence (P06276 whole entry): as the sequence (P06276 whole entry, looked up) above

Structure (SMILES): CC(C)C[C@@H](CS(=O)(=O)NCc1ccc(Cl)cc1)NC(=O)OCc1ccccc1
- Ratio IC50 [1]: 10.3

Structure (SMILES): CN(CCCOc1ccc2c(=O)c3ccccc3oc2c1)Cc1cccc(OC(=O)NCCCCCCCCCN2CCOCC2)c1
- IC50 [2]: 0.0293 µM
- IC50 [3]: 0.0089 µM

Structure (SMILES): CC(C)c1ccc(NC(=O)Oc2ccc3c(c2)[C@]2(C)CCN[C@@H]2N3)cc1
- Ratio IC50 [4]: 110

Structure (SMILES): CCN(C)C(=O)Oc1cc(OC(=O)N(C)CC)cc(C(O)CNC(C)(C)CC)c1 (centres undefined)
- Ratio IC50 [1]: > 862

Structure (SMILES): C#CCN(C)C1CCc2cccc(OC(=O)N(C)C)c21 (centres undefined)
- IC50 [5]: 7 µM
- IC50 [6]: 0.33 µM
- IC50 [7]: 730 µM

Structure (SMILES): CCCCCCCNC(=O)OCCN1CCN(CCCCCOc2ccc3ccc(=O)[nH]c3c2)CC1
- IC50 [8]: 0.39 µM
- IC50 [9]: 1.8 µM

Structure (SMILES): CCCCCCCNC(=O)Oc1ccc2c(c1)CN1CCc3ccc(/N=N\c4ccccc4)cc3C1N2C (centres undefined)
- IC50 [10]: 0.0445 µM

Structure (SMILES): CC(C)c1ccc(NC(=O)Oc2ccc3c(c2)[C@]2(C)CCN(CCc4ccccc4)[C@@H]2N3C)cc1
- IC50 [11]: > 30 µM
- Ratio IC50 [4]: > 5000

Structure (SMILES): COc1cc(/C=C/c2ccc(OC(=O)N3CCN(C)CC3)cc2)cc(OC)c1
- IC50 [12]: 8.58 µM

Structure (SMILES): CNC(=O)Oc1cccc(CN(C)CCCCCCCOc2ccc(-c3cc4ccccc4oc3=O)cc2)c1
- Ratio IC50 [13]: 49
- IC50 [14]: 0.0012 µM
- IC50 [15]: 0.0594 µM

Structure (SMILES): CC(C)c1ccc(NC(=O)Oc2ccc3c(c2)C2(C)COC(C2)O3)cc1 (centres undefined)
- Ratio IC50 [4]: 195

Structure (SMILES): CN(C)C(=O)Oc1cccc(-c2coc3c4c(ccc3c2=O)OC(C)(C)C=C4)c1
- IC50 [8]: 33.6 µM
- IC50 [9]: 0.68 µM
- Ratio IC50 [1]: 49.3

Structure (SMILES): C#CCNC1CCc2c(OC(=O)N(C)CC)cccc21 (centres undefined)
- IC50 [16]: 2.15 µM
- IC50 [5]: 0.019 µM
- IC50 [6]: 0.83 µM
- IC50 [7]: 150 µM

Structure (SMILES): COC(=O)CCC/C=C\C/C=C\C/C=C\CCOC(=O)Nc1ccc(Br)cc1
- IC50 [17]: 19.2 µM
- Ki [18]: 1.1 µM

Structure (SMILES): CCCCCCCNC(=O)OCn1nc(-c2ccccc2OC)ccc1=O
- IC50 [19]: 12.8 µM

Structure (SMILES): O=c1ccc2ccc(OCCCCSC(=S)N3CCCCC3)cc2[nH]1
- IC50 [9]: 0.16 µM

Structure (SMILES): C#CCNC1CCc2c(OC(=O)N(C)C)cccc21 (centres undefined)
- IC50 [5]: 0.053 µM
- IC50 [6]: 0.26 µM
- IC50 [7]: 86 µM

Structure (SMILES): COc1cc(/C=C/C(=O)NCCCCNC(=O)Oc2ccc3c(c2)CN2CCc4ccccc4C2N3C)ccc1O (centres undefined)
- IC50 [10]: 0.102 µM

Structure (SMILES): CCCCCCNC(=O)OCn1nc(-c2ccccc2OC)ccc1=O
- IC50 [19]: 35 µM

Structure (SMILES): COC(=O)C1=CN([11CH3])c2cccc(OC(=O)N(C)C)c2C1
- IC50 [20]: > 1000 µM

Structure (SMILES): C#CCN(C)C1CCc2c(OC(=O)N(C)CC)cccc21 (centres undefined)
- IC50 [16]: 14.9 µM
- IC50 [5]: 0.79 µM
- IC50 [6]: 0.027 µM
- IC50 [7]: 4 µM

Structure (SMILES): COC(=O)CCC/C=C\C/C=C\C/C=C\CCOC(=O)Nc1ccc(Cl)cc1
- IC50 [17]: 20.2 µM
- Ki [18]: 2.62 µM

Structure (SMILES): COC(=O)CCC/C=C\C/C=C\C/C=C\CCOC(=O)Nc1ccc(OC)cc1
- IC50 [17]: 24.8 µM
- Ki [18]: 3.48 µM

Structure (SMILES): COc1ccccc1-c1ccc(=O)n(COC(=O)Nc2ccc(C)cc2)n1
- IC50 [19]: 34.5 µM
